{"source": "patent US4421754A", "about": "“Syndonimine derivatives, process for production thereof, and use thereof” (Hidaka; Hiroyoshi, priority 1981, dated 1983)", "key": {"[1]": {"system": "portal vein", "assay": "relaxing activity against contraction by KCl, extracted rabbit blood vessels (portal vein)", "details": "Oryctolagus cuniculus, helical stripe specimens, read-out: ED50 (relaxing activity against KCl contraction)", "procedure": "(§1) (1) Activity on the extracted blood vessels of a rabbit\n(§2) A rabbit with a body weight of 2 to 3 kg was bled to death, and the thoracic aorta, mesenteric artery, renal artery, basilar artery and portal vein were extracted. Helical stripe specimens of these blood vessels were prepared. The specimens were suspended in a Magnus vessel, and the relaxing activity of the compound A against contraction of the specimens by KCl was examined. […] It is seen therefore that the compound A differs in activity from nitroglycerin having a strong relaxing activity on the veins, and has a strong relaxing activity on arteries, for example the coronary artery, the renal artery, etc."}, "[2]": {"system": "thoracic aorta", "assay": "relaxing activity against contraction by KCl, extracted rabbit blood vessels (thoracic aorta)", "details": "Oryctolagus cuniculus, helical stripe specimens, read-out: ED50 (relaxing activity against KCl contraction)", "procedure": "as §1, §2"}, "[3]": {"system": "human platelet", "assay": "inhibition of human platelet aggregation in PRP", "type": "cell-based", "from_the_text": "(2) Activity on human platelet\nPRP (platelet-rich plasma) was centrifugally separated from human blood to which sodium citrate had been added, and used as a sample. Collagen, adrenaline and adenosine diphosphate were used as substances causing platelet aggregation. The inhibitory effect of the compound A against platelet aggregation included by these substances was examined.\n(§3) The inhibiting activity on human platelet aggregation and the relaxing activity on mesenteric artery (the artery being extracted from rabbits) of compounds B to G of the invention were also examined in the same way as in I, (1) and (2). The mesenteric artery relaxing activity was shown in terms of the concentration (μM) of each compound which was required to cause 50% of the maximum relaxation, and the platelet aggregation inhibiting activity, in terms of the concentration (μM) of each compound which was required to inhibit aggregation to an extent of 50%. The platelet aggregation inhibiting activities of these compounds agreed relatively well with their artery relaxing activities"}, "[4]": {"system": "coronary artery", "assay": "relaxing activity against contraction by KCl, extracted rabbit blood vessels (coronary artery)", "details": "Oryctolagus cuniculus, helical stripe specimens, read-out: ED50 (relaxing activity against KCl contraction)", "procedure": "as §1, §2"}, "[5]": {"system": "basilar artery", "assay": "relaxing activity against contraction by KCl, extracted rabbit blood vessels (basilar artery)", "details": "Oryctolagus cuniculus, helical stripe specimens, read-out: ED50 (relaxing activity against KCl contraction)", "procedure": "as §1, §2"}, "[6]": {"system": "mesenteric artery", "assay": "relaxing activity against contraction by KCl, extracted rabbit blood vessels (mesenteric artery)", "details": "Oryctolagus cuniculus", "procedure": "as §1, §2, §3"}, "[7]": {"assay": "acute toxicity test", "details": "mouse, in vivo", "procedure": "An acute toxicity test was carried out by using male dd-strain mice (body weight 16 to 20 g)."}, "[8]": {"assay": "activity on the respiration, blood pressure, heart rate and blood flow rate of a dog", "type": "in vivo, dog (male Beagle)", "details": "intravenous, pentobarbital anesthesia", "procedure": "(3) Activity on the respiration, blood pressure, heart rate and blood flow rate of a dog.\nThe test was carried out under pentobarbital anesthesia using a male Beagle dog having a body weight of about 10 kg. The respiration was measured by means of a pneumotachograph; the blood pressure, by inserting a cannula into the femoral artery; the heart rate, by a cardiotachometer; and the rate of blood flow, by means of an electromagnetic blood flow meter by mounting a measuring probe on the vertebral artery and the femoral artery.\nThe present compound A was intraveneously administered as a solution in physiological saline."}, "[9]": {"system": "renal artery", "assay": "relaxing activity against contraction by KCl, extracted rabbit blood vessels (renal artery)", "details": "Oryctolagus cuniculus, helical stripe specimens, read-out: ED50 (relaxing activity against KCl contraction)", "procedure": "as §1, §2"}, "[10]": {"details": "Table 1, human platelets, inducing substance not stated, read-out: Platelet aggregation inhibiting activity (concentration required to inhibit aggregation to an extent of 50%)"}, "[11]": {"details": "Table 1, artery extracted from rabbits, same way as in I (1), read-out: Mesenteric artery relaxing activity (concentration required to cause 50% of the maximum relaxation)"}}, "note": "Read-outs that look alike come from different tables or passages of the source."}
{"smiles": "N=c1c[n+](N2CCN(CCCCC(=O)c3ccccc3)CC2)[n-]o1", "note": "[compound A, 3-[4-(4-Benzoylbutyl)piperazin-1-yl]sydnonimine]", "values": [{"measurement": "EC50", "setting": "[1]", "result": 4000, "unit": "nM"}, {"measurement": "EC50", "setting": "[2]", "result": 200, "unit": "nM"}, {"measurement": "IC50", "setting": "[3]; induced by adenosine diphosphate, human PRP, read-out: concentration which achieved a 50% inhibition of the platelet aggregation", "result": 1500, "unit": "nM"}, {"measurement": "IC50", "setting": "[3]; induced by adrenaline, human PRP, read-out: concentration which achieved a 50% inhibition of the platelet aggregation", "result": 800, "unit": "nM"}, {"measurement": "IC50", "setting": "[3]; induced by collagen, human PRP, read-out: concentration which achieved a 50% inhibition of the platelet aggregation", "result": 3400, "unit": "nM"}, {"measurement": "EC50", "setting": "[4]", "result": 200, "unit": "nM"}, {"measurement": "EC50", "setting": "[5]", "result": 1300, "unit": "nM"}, {"measurement": "EC50", "setting": "[6]; mesenteric artery, KCl contraction, helical stripe specimens, read-out: ED50 (relaxing activity against KCl contraction)", "result": 200, "unit": "nM"}, {"measurement": "LD50", "setting": "[7]; sc, subcutaneous administration", "result": 350, "unit": "mg/kg"}, {"measurement": "LD50", "setting": "[7]; intravenous administration", "result": 91, "unit": "mg/kg"}, {"measurement": "LD50", "setting": "[7]; oral administration", "result": 750, "unit": "mg/kg"}, {"measurement": "effect on respiration, blood pressure, heart rate and blood flow", "setting": "[8]; 10 μg/kg", "result": "No appreciable effect was seen"}, {"measurement": "blood pressure", "setting": "[8]; 100 μg/kg", "result": "slight degrees of a fall in blood pressure"}, {"measurement": "force of the pulse", "setting": "[8]; 100 μg/kg", "result": "a decrease in the force of the pulse"}, {"measurement": "blood pressure", "setting": "[8]; 500 μg/kg", "result": "a transient fall in blood pressure and a subsequent lasting fall in blood pressure"}, {"measurement": "rate of blood flow", "setting": "[8]; vertebral artery and femoral artery", "result": "tended to increase at the central part as compared with the peripheral part"}, {"measurement": "EC50", "setting": "[9]", "result": 100, "unit": "nM"}]}
{"smiles": "N=c1c[n+](N2CCN(CC(=O)c3ccccc3)CC2)[n-]o1", "note": "[compound B, 3-[4-(benzoylmethyl)piperazin-1-yl]sydnonimine]", "values": [{"measurement": "IC50", "setting": "[3]; [10]", "result": 140, "unit": "nM"}, {"measurement": "EC50", "setting": "[6]; [11]", "result": 160, "unit": "nM"}]}
{"smiles": "N=c1c[n+](N2CCN(CCCC(=O)c3ccccc3)CC2)[n-]o1", "note": "[compound C, 3-[4-(3-benzoylpropyl)piperazin-1-yl]sydnonimine]", "values": [{"measurement": "IC50", "setting": "[3]; [10]", "result": 5400, "unit": "nM"}, {"measurement": "EC50", "setting": "[6]; [11]", "result": 2300, "unit": "nM"}]}
{"smiles": "N=c1c[n+](N2CCN(CCCCCC(=O)c3ccccc3)CC2)[n-]o1", "note": "[compound D, 3-[4-(5-benzoylpentyl)piperazin-1-yl]sydnonimine]", "values": [{"measurement": "IC50", "setting": "[3]; [10]", "result": 6300, "unit": "nM"}, {"measurement": "EC50", "setting": "[6]; [11]", "result": 3000, "unit": "nM"}]}
{"smiles": "N=c1c[n+](N2CCN(CCCCCCC(=O)c3ccccc3)CC2)[n-]o1", "note": "[compound E, 3-[4-(6-benzoylhexyl)piperazin-1-yl]sydnonimine]", "values": [{"measurement": "IC50", "setting": "[3]; [10]", "result": 940, "unit": "nM"}, {"measurement": "EC50", "setting": "[6]; [11]", "result": 120, "unit": "nM"}]}
{"smiles": "N=c1c[n+](N2CCN(CCCCCCCCC(=O)c3ccccc3)CC2)[n-]o1", "note": "[compound F, 3-[4-(8-benzoyloctyl)piperazin-1-yl]sydnonimine]", "values": [{"measurement": "IC50", "setting": "[3]; [10]", "result": 28, "unit": "nM"}, {"measurement": "EC50", "setting": "[6]; [11]", "result": 58, "unit": "nM"}]}
{"smiles": "CC(C)CC(CCCN1CCN([n+]2cc(=N)o[n-]2)CC1)C(=O)c1ccccc1", "note": "(centres unmarked) [compound G, 3-[4-(4-benzoyl-6-methylheptyl)piperazin-1-yl]-sydnonimine]", "values": [{"measurement": "IC50", "setting": "[3]; [10]", "result": 11000, "unit": "nM"}, {"measurement": "EC50", "setting": "[6]; [11]", "result": 1300, "unit": "nM"}]}
